# Measurements reported in patent publication US20210113441A1, “BIOSOLVENT MIXTURE REMOVAL OF INFECTION-CAUSED NAIL DISCOLORATION” (Vertec BioSolvents, Inc., priority 2019, published 2021).
# Assay: Solubility studies in 50/50 alcohol/ethyl lactate blends
# Conditions: for Final concentration dissolved (clear, free of particulates): ambient temperature about 20-25 C
smiles,measurement,setting,value
"Clc1ccccc1C(c1ccccc1)(c1ccccc1)n1ccnc1 [clotrimazole, Clotrimazole]",Solubility,ethanol/ethyl lactate 50/50 blend (conclusion),greater than 10 % w/w
same,"Final concentration dissolved (clear, free of particulates)",ethyl alcohol/ethyl lactate blend 50/50 w/w,10.31%
same,Solubility,isopropanol/ethyl lactate 50/50 blend (conclusion),greater than 10 % w/w
same,"Final concentration dissolved (clear, free of particulates)",isopropyl alcohol/ethyl lactate blend 50/50 w/w,10.07%
